Assay results: patent publication US20250320224A1 (DOMAIN THERAPEUTICS, priority 2022, published 2025)
Where a name gives a salt, the structure may show the parent alone.

Molecular target: T1, human PAR-2 (hPAR-2) receptor (Homo sapiens, UniProt P55085)
T1 construct: expressed in HEK-293 cells in an endogenous manner; endogenous in cells; host or cells: HEK-293
T1 sequence (P55085 26-397): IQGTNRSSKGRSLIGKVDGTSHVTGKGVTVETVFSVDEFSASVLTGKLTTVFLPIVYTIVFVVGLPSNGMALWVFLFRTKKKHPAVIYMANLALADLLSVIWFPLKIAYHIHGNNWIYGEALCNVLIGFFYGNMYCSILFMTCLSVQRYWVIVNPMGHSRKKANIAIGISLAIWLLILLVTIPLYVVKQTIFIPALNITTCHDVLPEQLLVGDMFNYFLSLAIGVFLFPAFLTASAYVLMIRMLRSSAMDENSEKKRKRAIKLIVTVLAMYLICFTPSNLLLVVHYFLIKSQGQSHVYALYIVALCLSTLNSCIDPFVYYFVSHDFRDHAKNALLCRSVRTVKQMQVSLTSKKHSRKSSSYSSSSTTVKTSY
Test: In vitro human PAR-2 functional antagonist activity using calcium assays
Type: cell-based
Settings: hPAR-2 endogenously expressed in HEK-293 cells; stimulated by 2-Furoyl-LIGRLO-NH2 peptide; Fluo4AM intracellular calcium, FLIPR Tetra
Procedure, shortened: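 Antagonism was measured as reduced calcium response to 2-Furoyl-LIGRLO-NH2 (dosed at its 80%-of-maximum concentration), recorded for 5 min. This followed a 10 min compound pre-incubation on Fluo4AM-loaded HEK-293 cells expressing native hPAR-2. Signals were normalised to buffer and agonist-alone controls.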

IC50 [nM]	SMILES
< 500	CC1(C)CN(c2ccc(Cl)c(F)c2)c2ccc(C(=O)N3C[C@@H]4[C@@H](CC(=O)O)[C@@H]4C3)nc21 [Example 31, 2-((1R,5S,6S)-3-(1-(4-chloro-3-fluorophenyl)-3,3-dimethyl-2,3-dihydro-1H-pyrrolo[3,2-b]pyridine-5-carbonyl)-3-azabicyclo[3.1.0]hexan-6-yl)acetic acid]
500 to 10000	CO[C@@H]1CN(C(=O)c2ccc3c(n2)C(C)(C)CN3c2ccc(Cl)c(F)c2)CC[C@H]1CC(=O)O [Example 92, 2-((3S,4S)-1-(1-(4-chloro-3-fluorophenyl)-3,3-dimethyl-2,3-dihydro-1H-pyrrolo[3,2-b]pyridine-5-carbonyl)-3-methoxypiperidin-4-yl)acetic acid]
< 500	Cc1cc(N2CCN(C(=O)c3ccc4c(n3)C3(CCCC3)CN4c3ccc(Cl)c(F)c3)C(C)(C)C2)nc(C)c1C(=O)O [Example 8, 6-(4-(1′-(4-chloro-3-fluorophenyl)-1′,2′-dihydrospiro[cyclopentane-1,3′-pyrrolo[3,2-b]pyridine]-5′-carbonyl)-3,3-dimethylpiperazin-1-yl)-2,4-dimethylnicotinic acid]
< 500	Cc1cc(N2CCN(C(=O)c3ccc4c(n3)C3(CCOC3)CN4c3ccc(Cl)c(F)c3)C(C)(C)C2)nc(C)c1C(=O)O (stereo not shown) [Example 60, 6-(4-(1′-(4-chloro-3-fluorophenyl)-1′,2′,4,5-tetrahydro-2H-spiro[furan-3,3′-pyrrolo[3,2-b]pyridine]-5′-carbonyl)-3,3-dimethylpiperazin-1-yl)-2,4-dimethylnicotinic acid hydrochloride]
< 500	Cc1cc(N2CCN(C(=O)c3ccc4c(n3)C3(CCCC3)CN4c3ccc(F)c(F)c3)C(C)(C)C2)nc(C)c1C(=O)O [Example 113, 6-(4-(1′-(3,4-difluorophenyl)-1′,2′-dihydrospiro[cyclopentane-1,3′-pyrrolo[3,2-b]pyridine]-5′-carbonyl)-3,3-dimethylpiperazin-1-yl)-2,4-dimethylnicotinic acid]
500 to 10000	CC1(C)CN(c2ccc(Cl)c(F)c2)c2ccc(C(=O)N3CC[C@@H](c4ccccn4)[C@H](C(=O)O)C3)nc21 (relative stereo) [Example 138, (trans)-1-(1-(4-chloro-3-fluorophenyl)-3,3-dimethyl-2,3-dihydro-1H-pyrrolo[3,2-b]pyridine-5-carbonyl)-4-(pyridin-2-yl)piperidine-3-carboxylic acid]

SMILES	IC50 [nM]
CC1(C)CN(c2ccc(Cl)c(F)c2)c2ccc(C(=O)N3[C@@H]4CC[C@H]3CC(CC(=O)O)C4)nc21 (mixture of isomers) [Example 130, 2-((1R,5S)-8-(1-(4-chloro-3-fluorophenyl)-3,3-dimethyl-2,3-dihydro-1H-pyrrolo[3,2-b]pyridine-5-carbonyl)-8-azabicyclo[3.2.1]octan-3-yl)acetic acid]	500 to 10000
